Data reported in ChEMBL document CHEMBL4425119, “Design and Development of a Series of Potent and Selective Type II Inhibitors of CDK8” (ACS Med Chem Lett, 2016).

What was measured:
[1] = Permeability across apical to basolateral side of MDCK cells; type: ADME, cell-based, Canis lupus familiaris; settings: dog, read-out: permeability
[2] = Permeability across basolateral to apical side of MDCK cells; type: ADME, cell-based, Canis lupus familiaris; settings: dog

Row | SMILES | Papp A→B [1] [×10⁻⁶ cm/s] | Papp B→A [2] [×10⁻⁶ cm/s]
1 | CNc1nccc(N2CC[C@H](NC(=O)Nc3ccc(CN4CCOCC4)c(C(F)(F)F)c3)C2)n1 | 12.4 | 12.2
2 | CCN1CCN(Cc2ccc(NC(=O)N[C@H]3CCN(c4ccnc(NC)n4)C3)cc2C(F)(F)F)CC1 | 0.3 | 4.2
3 | CNc1nccc(N2CC[C@H](NC(=O)Nc3ccc(Cl)c(C(F)(F)F)c3)C2)n1 | 3.9 | 4
4 | CNc1nccc(N2CC[C@H](NC(=O)Nc3ccc(CN4CCN(C)CC4)c(C(F)(F)F)c3)C2)n1 | 4.1 | 4.5
5 | CNc1nccc(N2CC[C@H](NC(=O)Nc3ccc(C)c(Cl)c3)C2)n1 | 3.9 | 7
